Tested on: CFTR mediated chloride current in Primary CF airway epithelial cells
Test: Equivalent current assay in primary CF airway epithelial cells (NAUC)
Format: cell-based
Details: 24 h treatment, stimulated with forskolin and VX770, normalized to positive control 3 μM VX809
Description: Primary CF airway epithelial cells were obtained from the UNC Cystic Fibrosis Tissue Procurement and Cell Culture Core. The cells are grown at 37° C. in a Heracell 150i incubator using growth media (BEGM, Fischer). Cells were then transferred to differentiation media (ALI, UNC) for a minimum of 4 weeks on coated Costar snapwells. Two days before the Ussing assay the mucus on the apical surface of the cells was aspirated after incubating with 200 μL of differentiation Media for at least thirty (30) minutes. One day before the Ussing assay test compounds were added to the basolateral surface of the cells at various test concentrations dissolved in DMSO. Duplicate wells were prepared giving a n=3 or n=4 protocol.
Cells were treated for 24 hours with various combinations and concentrations of the test articles, reference standard (3 μM VX809, positive control). Compounds stock solutions were prepared in DMSO and diluted 1/1000 into ALI media to their final assay concentration. Cells were treated with combination solutions (2 mL of each dilution) and incubated at 37° C. for 24 h.
For the equivalent current assay, cells on four Transwell (24-well) plates were treated. Each Transwell plate was filled with 200 μl of HBS on the apical surface and 2 ml on the basolateral surface. Plates were placed horizontally in a heated mount at 37° C., and equilibrated for several minutes. Resting current was measured for 15 min and then blocked by the apical addition of 5 μM benzamil. After 20 min, 10 μM forskolin and 1 μM VX770 were added to both the apical and basolateral side to stimulate CFTR. An increase in chloride current is seen as an upward deflection of the trace. After another 30 min, CFTR-172 (a CFTR inhibitor, 2 μM) and/or bumetanide (20 μM) was added to block CFTR mediated chloride current.
The raw data, current vs. time for the Ussing chamber (sampling interval: 10 s) and voltage vs. time and resistance vs. time for the equivalent current assay (sampling interval: 5 minutes) were transferred to Excel (Microsoft Office Professional, version 14.0.7106.5003) for analysis. CFTR specific current was measured as the average amplitude of the increase in current elicited upon addition forskolin and ending upon addition of the CFTR channel specific blocker CFTR-172. This average is equivalent to the sum of the average forskolin activated and the average VX770-potentiated currents. The average current measured in vehicle (0.1% DMSO) treated cells, Iv, was subtracted from the current for the test article, ITA, or from the corrector reference standard VX809 (3 μM ISTD. For replicate measurements, the average vehicle subtracted response for the test article, was normalized to the average vehicle subtracted […] response of the reference corrector VX809 (3 μM). INSC=(ITA−IV)(ave)/(ISTD−IV)(ave) (Equation 1)
A second endpoint, for the equivalent current assay, evaluated was NAUC, the normalized area under the curve (AUC) measuring the response after addition of forskolin and VX770 to the time point right before the addition of the CFTR inhibitor. The AUC is effectively the average response multiplied by the duration of the response. The AUC of the test article, AUCTA was then corrected by subtracting the average vehicle response, AUCV,ave over the same time range, and normalized as for the inhibitor-sensitive current to the difference of the corrector reference standard VX809 (3 μM VX809r,ave and the vehicle response: NAUCTA=[AUCTA−AUCV,ave]/[AUCVx809r,ave−AUCV,ave](Equation 2).
The normalized value for DMSO is 0.0 and for VX-809 alone is 1.0. Combinations of compounds with VX-809 that give normalized values greater than 1.0 show activity in the combination assay. A value of 2 means the test compound doubles the effect to VX-809 alone.
Experiments were run with a minimum of n=4 replicates per concentration. […]

Row | Structure (SMILES) | NAUC (normalized area under the curve), Test Conc 3 uM | NAUC (normalized area under the curve), Test Conc 10 uM
1 | NS(=O)(=O)c1ccc(CNC(=O)c2cc(-c3ccc(F)cc3)on2)cc1 [Example 18] | ++ (NAUC “++” refers to an observed NAUC 170-140% of positive control) | ++ (NAUC “++” refers to an observed NAUC 170-140% of positive control)
2 | CC(C)Oc1ccc(CNC(=O)c2cc(-c3ccc(F)cc3)on2)cc1 [Example 19] | + (NAUC “+” refers to an observed NAUC <140% of positive control) | + (NAUC “+” refers to an observed NAUC <140% of positive control)
3 | CC(C)OCCNC(=O)c1cc(-c2ccc(F)cc2)on1 [Example 20] | + (NAUC “+” refers to an observed NAUC <140% of positive control) | ++ (NAUC “++” refers to an observed NAUC 170-140% of positive control)
4 | O=C(NC[C@@H]1CCCO1)c1cc(-c2ccc(F)cc2)on1 [Example 21] | + (NAUC “+” refers to an observed NAUC <140% of positive control) | ++ (NAUC “++” refers to an observed NAUC 170-140% of positive control)
5 | CC(C)CNC(=O)c1cc(-c2ccc(F)cc2)on1 [Example 22] | + (NAUC “+” refers to an observed NAUC <140% of positive control) | ++ (NAUC “++” refers to an observed NAUC 170-140% of positive control)
6 | O=C(NCc1cccnc1)c1cc(-c2ccc(F)cc2)on1 [Example 24] | ++ (NAUC “++” refers to an observed NAUC 170-140% of positive control) | ++ (NAUC “++” refers to an observed NAUC 170-140% of positive control)
7 | O=C(NCc1cccc(F)c1F)c1cc(-c2ccc(F)cc2)on1 [Example 25] | + (NAUC “+” refers to an observed NAUC <140% of positive control) | + (NAUC “+” refers to an observed NAUC <140% of positive control)
8 | CCNC(=O)c1cc(-c2ccc(F)cc2)on1 [Example 26] | +++ (NAUC “+++” refers to an observed NAUC >170% of positive control) | +++ (NAUC “+++” refers to an observed NAUC >170% of positive control)
9 | O=C(NCc1ccccc1)c1cc(-c2ccc(F)cc2)on1 [Example 27] | ++ (NAUC “++” refers to an observed NAUC 170-140% of positive control) | ++ (NAUC “++” refers to an observed NAUC 170-140% of positive control)
10 | N#Cc1ccc(CNC(=O)c2cc(-c3ccc(F)cc3)on2)cc1 [Example 28] | + (NAUC “+” refers to an observed NAUC <140% of positive control) | + (NAUC “+” refers to an observed NAUC <140% of positive control)
11 | O=C(NC1CCCC1)c1cc(-c2ccc(F)cc2)on1 [Example 29] | ++ (NAUC “++” refers to an observed NAUC 170-140% of positive control) | ++ (NAUC “++” refers to an observed NAUC 170-140% of positive control)
12 | O=C(NC[C@H]1CCCO1)c1cc(-c2ccc(F)cc2)on1 [Example 30] | ++ (NAUC “++” refers to an observed NAUC 170-140% of positive control) | ++ (NAUC “++” refers to an observed NAUC 170-140% of positive control)
13 | CC(C)CCNC(=O)c1cc(-c2ccc(F)cc2)on1 [Example 31] | ++ (NAUC “++” refers to an observed NAUC 170-140% of positive control) | ++ (NAUC “++” refers to an observed NAUC 170-140% of positive control)
14 | O=C(NCC(c1ccccc1)c1ccccc1)c1cc(-c2ccc(F)cc2)on1 [Example 32] | + (NAUC “+” refers to an observed NAUC <140% of positive control) | + (NAUC “+” refers to an observed NAUC <140% of positive control)
15 | O=C(NCC1CCCCC1)c1cc(-c2ccc(F)cc2)on1 [Example 33] | + (NAUC “+” refers to an observed NAUC <140% of positive control) | + (NAUC “+” refers to an observed NAUC <140% of positive control)
16 | O=C(NCCOc1ccccc1)c1cc(-c2ccc(F)cc2)on1 [Example 34] | + (NAUC “+” refers to an observed NAUC <140% of positive control) | + (NAUC “+” refers to an observed NAUC <140% of positive control)
17 | O=C(NCC(F)(F)F)c1cc(-c2ccc(F)cc2)on1 [Example 35] | ++ (NAUC “++” refers to an observed NAUC 170-140% of positive control) | +++ (NAUC “+++” refers to an observed NAUC >170% of positive control)
18 | O=C(NCC1CC1)c1cc(-c2ccc(F)cc2)on1 [Example 36, N-(cyclopropylmethyl)-5-(4-fluorophenyl)isoxazole-3-carboxamide] | ++ (NAUC “++” refers to an observed NAUC 170-140% of positive control) | +++ (NAUC “+++” refers to an observed NAUC >170% of positive control)
19 | O=C(NCCN1CCOCC1)c1cc(-c2ccc(F)cc2)on1 [Example 37, 5-(4-fluorophenyl)-N-(2-morpholinoethyl)isoxazole-3-carboxamide] | + (NAUC “+” refers to an observed NAUC <140% of positive control) | ++ (NAUC “++” refers to an observed NAUC 170-140% of positive control)
20 | O=C(NCCCCC(=O)N1CCC1)c1cc(-c2ccccc2)on1 [Example 38, N-(5-(azetidin-1-yl)-5-oxopentyl)-5-phenylisoxazole-3-carboxamide] | +++ (NAUC “+++” refers to an observed NAUC >170% of positive control) | +++ (NAUC “+++” refers to an observed NAUC >170% of positive control)
21 | CN1CCN(C(=O)CCCCNC(=O)c2cc(-c3ccccc3)on2)CC1 [Example 43, N-(5-(4-methylpiperazin-1-yl)-5-oxopentyl)-5-phenylisoxazole-3-carboxamide] | +++ (NAUC “+++” refers to an observed NAUC >170% of positive control) | +++ (NAUC “+++” refers to an observed NAUC >170% of positive control)
22 | O=C(NCCC(=O)N1CCC1)c1cc(-c2ccccc2)on1 [Example 44, N-(3-(azetidin-1-yl)-3-oxopropyl)-5-phenylisoxazole-3-carboxamide] | +++ (NAUC “+++” refers to an observed NAUC >170% of positive control) | +++ (NAUC “+++” refers to an observed NAUC >170% of positive control)
23 | CN1CCN(C(=O)CCNC(=O)c2cc(-c3ccccc3)on2)CC1 [Example 48] | +++ (NAUC “+++” refers to an observed NAUC >170% of positive control) | +++ (NAUC “+++” refers to an observed NAUC >170% of positive control)
24 | O=C(NCCC(=O)N1CCC1)c1cc(-c2ccc(F)cc2)no1 [Example 51, N-(3-(azetidin-1-yl)-3-oxopropyl)-3-(4-fluorophenyl)isoxazole-5-carboxamide] | ++ (NAUC “++” refers to an observed NAUC 170-140% of positive control) | +++ (NAUC “+++” refers to an observed NAUC >170% of positive control)

— patent US9855249B2, “Isoxazole compounds and methods for the treatment of cystic fibrosis” (FLATLEY DISCOVERY LAB, LLC, priority 2014, dated 2018)
